Source: patent US12409139B2, “Stable parenteral formulations of duloxetine” (LEIUTIS PHARMACEUTICALS LLP, priority 2020, dated 2025)
Like-named read-outs stand apart in the source and are kept apart here.

Tests used:
[1] = for Assay (%) / Total Impurities / pH: RT-25° C.
Method: The solution state stability of duloxetine was studied in various buffers for 24 hours.
The samples were stored for 24 hours and analyzed for pH, assay and total impurities by standard analytical procedures.

[2] = commercial delayed release (enteric coated) capsules, oral; cited from earlier work
[3] = Acetate Buffer (pH-5.5), Initial
[4] = Acetate Buffer (pH-6.4), Initial
[5] = Aspartic acid + Boric Acid Buffer (pH-5.5), 24 h
[6] = Aspartic acid + Boric Acid Buffer (pH-5.5), Initial
[7] = Aspartic acid + Boric Acid Buffer (pH-6.4), 24 h
[8] = Aspartic acid + Boric Acid Buffer (pH-6.4), Initial
[9] = Glycine Buffer (pH-5.5), Initial
[10] = Glycine Buffer (pH-6.4), Initial
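Throughout, for Solubility observation: solubility and solution-stability study of the drug dissolved in assorted buffers across a range of pH values.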

Structure (SMILES): CNCCC(Oc1cccc2ccccc12)c1cccs1 (single isomer, unassigned; (+)) [duloxetine, (+)-N-methyl-3-(1-naphthalenyloxy)-3-(2-thienyl) propan-1-amine]
- Assay (%) ([1]; Acetate Buffer (pH-5.5), 24 h): 92.4%
- Total Impurities ([1]; Acetate Buffer (pH-5.5), 24 h): 0.2
- pH ([1]; Acetate Buffer (pH-5.5), 24 h): 5.4
- Assay (%) [1, 3]: 93.9%
- Total Impurities [1, 3]: 0.14
- pH [1, 3]: 5.32
- Assay (%) ([1]; Acetate Buffer (pH-6.4), 24 h): 90.3%
- Total Impurities ([1]; Acetate Buffer (pH-6.4), 24 h): 0.1
- pH ([1]; Acetate Buffer (pH-6.4), 24 h): 6.1
- Assay (%) [1, 4]: 94.3%
- Total Impurities [1, 4]: 0.1
- pH [1, 4]: 6.38
- Assay (%) [1, 5]: 93.3%
- Total Impurities [1, 5]: 0.5
- pH [1, 5]: 5.7
- Assay (%) [1, 6]: 93.0%
- Total Impurities [1, 6]: 0.3
- pH [1, 6]: 5.8
- Assay (%) [1, 7]: 97.8%
- Total Impurities [1, 7]: 0.5
- pH [1, 7]: 6.5
- Assay (%) [1, 8]: 97.9%
- Total Impurities [1, 8]: 0.3
- pH [1, 8]: 6.6
- Assay (%) ([1]; Glycine Buffer (pH-5.5), 24 h): 104.8%
- Total Impurities ([1]; Glycine Buffer (pH-5.5), 24 h): 0.2
- pH ([1]; Glycine Buffer (pH-5.5), 24 h): 5.5
- Assay (%) [1, 9]: 105%
- Total Impurities [1, 9]: 0.12
- pH [1, 9]: 5.59
- Assay (%) ([1]; Glycine Buffer (pH-6.4), 24 h): 96.6%
- Total Impurities ([1]; Glycine Buffer (pH-6.4), 24 h): 0.18
- pH ([1]; Glycine Buffer (pH-6.4), 24 h): 6.35
- Assay (%) [1, 10]: 97.7%
- Total Impurities [1, 10]: 0.10
- pH [1, 10]: 6.23
- Solution state stability in terms of assay and total impurities (in words) ([1]; acetate buffer at pH-5.5 and pH-6.4 and glycine buffer at pH-5.5 and pH-6.4, 24 hours): best results
- Solution state stability (in words) ([1]; all the buffers tested, stored for 24 hours): satisfactory stability
- Solubility observation (0.1N Sodium hydroxide buffer, pH 4.5, 10 mg/ml): Insoluble
- Solubility observation (0.1N Sodium hydroxide buffer, pH 5.5, 10 mg/ml): Insoluble
- Solubility observation (0.1N Sodium hydroxide buffer, pH 6.4, 10 mg/ml): Insoluble
- Solubility observation (Acetate buffer, pH 4.5, 10 mg/ml): Clear solution
- Solubility observation (Acetate buffer, pH 5.5, 10 mg/ml): Clear solution
- Solubility observation (Acetate buffer, pH 6.4, 10 mg/ml): Clear solution
- Solubility observation (Acetate buffer, pH 7.5, 10 mg/ml): Clear solution
- Solubility observation (Alanine buffer, pH 4.5, 10 mg/ml): Clear solution
- Solubility observation (Alanine buffer, pH 5.5, 10 mg/ml): Clear solution
- Solubility observation (Alanine buffer, pH 6.4, 10 mg/ml): Insoluble
- Solubility observation (Aspartic acid and Boric acid buffer, pH 4.5, 10 mg/ml): Clear solution
- Solubility observation (Aspartic acid and Boric acid buffer, pH 5.5, 10 mg/ml): Clear solution
- Solubility observation (Aspartic acid and Boric acid buffer, pH 6.4, 10 mg/ml): Insoluble
- Solubility observation (Citrate buffer, pH 4.5, 10 mg/ml): Insoluble
- Solubility observation (Citrate buffer, pH 5.5, 10 mg/ml): Insoluble
- Solubility observation (Citrate buffer, pH 6.4, 10 mg/ml): Insoluble
- Solubility observation (Glycine buffer, pH 4.5, 10 mg/ml): Clear solution
- Solubility observation (Glycine buffer, pH 5.5, 10 mg/ml): Clear solution
- Solubility observation (Glycine buffer, pH 6.4, 10 mg/ml): Clear solution
- Solubility observation (Glycine buffer, pH 7.5, 10 mg/ml): Clear solution
- Solubility observation (Histidine buffer, pH 4.5, 10 mg/ml): Insoluble
- Solubility observation (Histidine buffer, pH 5.5, 10 mg/ml): Insoluble
- Solubility observation (Histidine buffer, pH 6.4, 10 mg/ml): Insoluble
- Solubility observation (Isoleucine buffer, pH 4.5, 10 mg/ml): Clear solution
- Solubility observation (Isoleucine buffer, pH 5.5, 10 mg/ml): Clear solution
- Solubility observation (Isoleucine buffer, pH 6.4, 10 mg/ml): Clear solution
- Solubility observation (Isoleucine buffer, pH 7.5, 10 mg/ml): Clear solution
- Solubility observation (Lactic acid buffer, pH 4.5, 10 mg/ml): Clear solution
- Solubility observation (Lactic acid buffer, pH 5.5, 10 mg/ml): Clear solution
- Solubility observation (Lactic acid buffer, pH 6.4, 10 mg/ml): Clear solution
- Solubility observation (Lactic acid buffer, pH 7.5, 10 mg/ml): Clear solution
- Solubility observation (Leucine buffer, pH 4.5, 10 mg/ml): Clear solution
- Solubility observation (Leucine buffer, pH 5.5, 10 mg/ml): Clear solution
- Solubility observation (Leucine buffer, pH 6.4, 10 mg/ml): Clear solution
- Solubility observation (Leucine buffer, pH 7.5, 10 mg/ml): Clear solution
- Solubility observation (Lysine buffer, pH 4.5, 10 mg/ml): Insoluble
- Solubility observation (Lysine buffer, pH 5.5, 10 mg/ml): Insoluble
- Solubility observation (Lysine buffer, pH 6.4, 10 mg/ml): Insoluble
- Solubility observation (Meglumine buffer, pH 4.5, 10 mg/ml): Insoluble
- Solubility observation (Meglumine buffer, pH 5.5, 10 mg/ml): Insoluble
- Solubility observation (Meglumine buffer, pH 6.4, 10 mg/ml): Insoluble
- Solubility observation (Methionine buffer, pH 4.5, 10 mg/ml): Clear solution
- Solubility observation (Methionine buffer, pH 5.5, 10 mg/ml): Clear solution
- Solubility observation (Methionine buffer, pH 6.4, 10 mg/ml): Clear solution
- Solubility observation (Methionine buffer, pH 7.5, 10 mg/ml): Clear solution
- Solubility observation (Phenyl alanine buffer, pH 4.5, 10 mg/ml): Clear solution
- Solubility observation (Phenyl alanine buffer, pH 5.5, 10 mg/ml): Clear solution
- Solubility observation (Phenyl alanine buffer, pH 6.4, 10 mg/ml): Insoluble
- Solubility observation (Phosphate buffer, pH 4.5, 10 mg/ml): Clear solution
- Solubility observation (Phosphate buffer, pH 5.5, 10 mg/ml): Insoluble
- Solubility observation (Phosphate buffer, pH 6.4, 10 mg/ml): Insoluble
- Solubility observation (Proline buffer, pH 4.5, 10 mg/ml): Clear solution
- Solubility observation (Proline buffer, pH 5.5, 10 mg/ml): Clear solution
- Solubility observation (Proline buffer, pH 6.4, 10 mg/ml): Clear solution
- Solubility observation (Proline buffer, pH 7.5, 10 mg/ml): Clear solution
- Solubility observation (Serine buffer, pH 4.5, 10 mg/ml): Clear solution
- Solubility observation (Serine buffer, pH 5.5, 10 mg/ml): Clear solution
- Solubility observation (Serine buffer, pH 6.4, 10 mg/ml): Clear solution
- Solubility observation (Serine buffer, pH 7.5, 10 mg/ml): Insoluble
- Solubility observation (Sodium phosphate buffer, pH 4.5, 10 mg/ml): Clear solution
- Solubility observation (Sodium phosphate buffer, pH 5.5, 10 mg/ml): Insoluble
- Solubility observation (Sodium phosphate buffer, pH 6.4, 10 mg/ml): Insoluble
- Solubility observation (Succinate buffer, pH 4.5, 10 mg/ml): Clear solution
- Solubility observation (Succinate buffer, pH 5.5, 10 mg/ml): Insoluble
- Solubility observation (Succinate buffer, pH 6.4, 10 mg/ml): Insoluble
- Solubility observation (Tartaric acid buffer, pH 4.5, 10 mg/ml): Insoluble
- Solubility observation (Tartaric acid buffer, pH 5.5, 10 mg/ml): Insoluble
- Solubility observation (Tartaric acid buffer, pH 6.4, 10 mg/ml): Insoluble
- Solubility observation (Tris buffer, pH 4.5, 10 mg/ml): Insoluble
- Solubility observation (Tris buffer, pH 5.5, 10 mg/ml): Insoluble
- Solubility observation (Tris buffer, pH 6.4, 10 mg/ml): Insoluble
- Solubility observation (Tryptophan buffer, pH 4.5, 10 mg/ml): Clear solution
- Solubility observation (Tryptophan buffer, pH 5.5, 10 mg/ml): Clear solution
- Solubility observation (Tryptophan buffer, pH 6.4, 10 mg/ml): Clear solution
- Solubility observation (Tryptophan buffer, pH 7.5, 10 mg/ml): Clear solution
- Solubility observation (Valine buffer, pH 4.5, 10 mg/ml): Clear solution
- Solubility observation (Valine buffer, pH 5.5, 10 mg/ml): Clear solution
- Solubility observation (Valine buffer, pH 6.4, 10 mg/ml): Clear solution
- Solubility observation (Valine buffer, pH 7.5, 10 mg/ml): Clear solution
- time for the absorption to begin [2]: 2 h
